Format in all cases: cell-based
Series [1] concerns chloroquine-resistant strain (Indochina W2) of P. falciparum. Nature of the series: Malaria bioassay, PicoGreen fluorometric antiplasmodial assay. The following applies: Plasmodium falciparum.
Series [2] has as its system MCF-7 human breast cancer cells. Nature of the series: Cancer bioassay, cytotoxicity by NCI protocol.
The subject of series [3] is recombinant Tulahuen clone C4 of T. cruzi, intracellular amastigotes in Vero cells. Nature of the series: Chagas' disease bioassay, beta-galactosidase colorimetric assay. The following applies: Trypanosoma cruzi, 120 h, read-out: IC50 T. cruzi.
Series [4] in a line: Mammalian cell cytotoxicity bioassay. The following applies: African green monkey, Vero cells (kidney).

Read-outs that look alike come from different tables or passages of the source.

`CCN(CC)CCCC(C)Nc1ccnc2cc(Cl)ccc12` (stereo not shown) [Chloroquine, reference compound]: the concentration for half-maximal inhibition (IC50) in series [1] (W2, read-out: IC50 P. falciparum, positive control) fell in the range of 80 to 100 nM.
For `COc1cccc2c1C(=O)c1c(O)c3c(c(O)c1C2=O)C[C@@](O)(C(=O)CO)C[C@@H]3O[C@H]1C[C@H](N)[C@H](O)[C@H](C)O1` [Adriamycin, reference compound], in series [2] (MCF7, read-out: IC50 MCF-7, positive control), the half-inhibitory concentration (IC50) fell in the range of 0.02 to 0.3 nM.
Regarding `CC1CS(=O)(=O)CCN1/N=C/c1ccc([N+](=O)[O-])o1` (stereo not shown) [Nifurtimox, reference compound], the IC50 in series [3] is 10000 to 16000 nM.
As to `COc1c(CC(C)O)c2c3c(CC(C)O)c(OC)c(=O)c4c(O)cc5c(c6c(cc(O)c(c1=O)c62)OCO5)c43` (stereo not shown) [Compound 1, cercosporin], the 50% inhibitory concentration (IC50) in series [1] (W2, read-out: IC50 P. falciparum) was 1030 ± 30 nM; in series [2] (MCF7, read-out: IC50 MCF-7), 4680 ± 200 nM; in series [3], 1080 ± 30 nM. In addition, 1540 ± 100 nM corresponded to half-maximal inhibition in series [4] (IC50 at 4 h).

The record behind these values is publication PMC3375898 (Natural Product Communications, 2011).
